The subject of one assay is cortex explants. Put plainly: Neurite outgrowth from cultured cortex of treated lesioned animals. The class given is cell-based, rat. The conditions noted are these: cortex from lesioned rats treated in vivo. The procedure: When pieces of cortex from these RARβ agonist treated animals were cultured, neurite outgrowth was observed, in contrast to cortex from control lesioned animals.
(§1) Cerebellar neurons isolated from post-natal day 3 rat pups were cultured over monolayers of parental 3T3 cells in control media, or media supplemented with a recombinant MAG-Fc chimera (R&D Systems) used at a final concentration of 20 μg/mL MAG-Fc. The monolayers were established for 24 hours prior to addition of the neurons and the co-cultures were maintained for approximately 21 hours. Following careful fixation with 4% paraformaldehyde, the neurons were immuno-stained with a GAP-43 antibody (from Graham Wilkin, Imperial College), dilution of 1:500, and the mean length of the longest neurite per cell was measured for approximately 120-150 neurons as previously described (see, e.g., Williams et al., 2005). DRG and cortical explants were obtained from adult rats, they were cultured in cellogen as previously described (see, e.g., Corcoran and Maden, 1999). Three explants per treatment were used. Neurite outgrowth was assessed 3 days later by immunohistochemistry with NF200 (Sigma, dilution of 1:200). The average lengths of the neurites were measured using image pro plus software. Media consisted of DMEM-F12 (Invitrogen) containing N2 (Invitrogen) supplemented with glucose (33 mM) and glutamine (2 mM).

The test system of another assay is cerebellar neurons. In words: Neurite outgrowth assay, cerebellar neurons in the presence of myelin/MAG. It is filed as cell-based, rat. The protocol:
as §1

Assay [1] concerns the target T1, RARγ (Homo sapiens (Human), UniProt P13631). In words: Transactivation assay, human RARγ. The class given is cell-based. To be noted: Table 1; all human data. The procedure:
(§2) Transcriptional transactivation assays were performed with gal4 fusion receptor constructs, created using each of the RAR ligand binding domains of either mouse or human, co-transfected with the pFR-luc (Stratagene) reporter construct in COS-7 cells.
(§3) Briefly, on day 1, 96 well plates were seeded with 8000 cells per well then left to recover overnight. On day 2, the cells were co-transfected with 100 ng of reporter plasmid and 10 ng of the appropriate receptor plasmid per well using lipofectamine (Invitrogen). On day 3, the lipofectamine containing media was replaced by a DMEM without phenol red, followed by the addition of test compound dissolved in 1 μL of DMSO to each well's 100 μL total volume. Finally, on day 4, the cells were lysed and their luciferase substrate was provided by the BrightGlo™ reagent (Promega), the plates were then read on the MicroBeta TriLux™ (Perkin Elmer).
(§4) Data for test compounds are quoted as EC50 values. Where replicate data has been generated, the data are quoted as the mean EC50 from the separate experiments.
Target sequence in this assay (P13631 185-419): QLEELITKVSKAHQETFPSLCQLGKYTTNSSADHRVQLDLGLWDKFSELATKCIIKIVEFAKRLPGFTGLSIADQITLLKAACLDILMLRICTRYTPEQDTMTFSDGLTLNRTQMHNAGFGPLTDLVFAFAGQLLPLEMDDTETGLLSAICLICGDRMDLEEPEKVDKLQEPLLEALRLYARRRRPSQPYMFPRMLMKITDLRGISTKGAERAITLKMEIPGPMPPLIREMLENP

The target in a further assay is RARβ (Homo sapiens (Human), UniProt P10826). Put plainly: Transactivation assay, human RARβ. The class given is cell-based. To be noted: Table 1; all human data; read-out: RARβ potency EC50. The protocol:
as §2, §3, §4

The target of assay [2] is T1, RARγ. To be noted: Bernard et al., 1992; Delescluse et al., 1991; cited from earlier work.
Target sequence in this assay (P13631 whole entry, species assumed, the tested form may be a part): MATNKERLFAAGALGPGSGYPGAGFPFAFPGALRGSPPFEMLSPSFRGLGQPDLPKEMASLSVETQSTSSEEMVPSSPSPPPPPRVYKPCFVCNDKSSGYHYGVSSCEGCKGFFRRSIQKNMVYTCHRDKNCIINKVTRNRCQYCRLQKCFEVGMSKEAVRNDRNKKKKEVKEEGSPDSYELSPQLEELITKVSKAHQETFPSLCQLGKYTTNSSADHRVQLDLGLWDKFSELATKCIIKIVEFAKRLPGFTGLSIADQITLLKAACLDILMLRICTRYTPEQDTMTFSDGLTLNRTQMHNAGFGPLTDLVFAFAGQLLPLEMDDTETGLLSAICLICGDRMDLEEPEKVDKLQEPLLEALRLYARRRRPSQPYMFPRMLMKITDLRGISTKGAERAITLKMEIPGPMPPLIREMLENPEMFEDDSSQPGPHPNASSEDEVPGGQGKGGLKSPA
Assay [3] has as its system rats with severed sensory roots. Put plainly: Severed and re-implanted sensory roots (DRG, left forelimb) in rats; sticky tape tests. The class given is in vivo. To be noted: rat, 1 mg/kg two days after lesion, then three times a week. The protocol: In another example of nerve injury, the four sensory roots from each of four DRG at the level of the left forelimb were severed and re-implanted into the spinal cord.
FIGS. 2A and 2B show two graphs of the time taken for rats to sense sticky tape (FIG. 2A) and to remove sticky tape (FIG. 2B) that is placed on its injured forepaw, as a function of the number of weeks after injury. Rats were treated with 1 mg/kg of the test compound or vehicle two days after lesion, and then three times a week for the period of the experiment. Error bars show SEM. ***P<0.001, students t test, n=3-4 rats for each treatment group. At weeks 3, 4, and 5, there was significant difference between the rats treated with RARβ agonist as compared to rats treated with other retinoid agonists and vehicle.

In assay [4] the target is T2, RARα (Homo sapiens (Human), UniProt P10276). In words: Transactivation assay, human RARα. It is filed as cell-based. The conditions noted are these: Table 1; all human data. The protocol: as §2, §3, §4
Target sequence in this assay (P10276 183-417): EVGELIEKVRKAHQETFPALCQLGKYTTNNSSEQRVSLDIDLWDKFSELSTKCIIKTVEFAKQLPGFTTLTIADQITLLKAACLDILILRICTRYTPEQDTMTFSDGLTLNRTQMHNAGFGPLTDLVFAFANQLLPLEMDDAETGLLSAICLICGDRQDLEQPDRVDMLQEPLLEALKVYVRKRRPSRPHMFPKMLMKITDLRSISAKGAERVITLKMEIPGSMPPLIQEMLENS
Assay [5] has as its target T2, RARα. The conditions noted are these: Bernard et al., 1992; Delescluse et al., 1991; cited from earlier work.
Target sequence in this assay (P10276 whole entry, species assumed): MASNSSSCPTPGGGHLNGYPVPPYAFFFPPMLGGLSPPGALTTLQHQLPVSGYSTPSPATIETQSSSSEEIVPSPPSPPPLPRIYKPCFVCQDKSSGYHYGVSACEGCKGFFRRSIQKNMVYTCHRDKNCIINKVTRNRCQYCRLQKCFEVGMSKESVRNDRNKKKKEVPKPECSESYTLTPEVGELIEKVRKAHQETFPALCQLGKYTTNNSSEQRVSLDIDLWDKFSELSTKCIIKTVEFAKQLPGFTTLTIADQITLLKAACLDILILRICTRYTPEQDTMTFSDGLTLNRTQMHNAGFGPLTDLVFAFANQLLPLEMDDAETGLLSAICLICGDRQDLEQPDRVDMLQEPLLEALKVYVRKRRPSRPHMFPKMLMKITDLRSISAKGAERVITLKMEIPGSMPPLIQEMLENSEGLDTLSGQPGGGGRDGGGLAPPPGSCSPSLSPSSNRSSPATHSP
Assay [6] deals with rats with crushed corticospinal tract (CST). In words: Corticospinal tract (CST) crush at C4 in rats, i.c.v. treatment; tracing and behavioural tests. To be noted: rat. The class given is in vivo. The procedure:
FIGS. 1A and 1B show two graphs of the number of rat footslips as a function of the number of weeks after lesion, for grid task (FIG. 1A) and beam task (FIG. 1B).
All animal experiments were carried out under UK home office regulations. Dorsal column lesions were performed on adult male rats as previously described (see, e.g., Bradbury et al., 2002). […] The pumps were placed subcutaneously and connected to a brain infusion catheter (Alzet™), which was inserted into the lateral ventricle (Bregma coordinates: rostrocaudal: −0.8 mm, mediolateral: −1.5 mm and dorsoventral: −4.5 mm). […] The dose was based previous in vivo studies on activation of RARα and RARβ signalling in the adult rat brain (see, e.g., Goncalves et al., 2009). Animals which underwent behavioural studies and subsequent tracing (n=6 per treatment) were kept for six weeks before being sacrificed with a lethal injection of pentobarbital and transcardially perfused with 4% PFA. Dissected tissue (cervical and lumbar spinal cord) was processed for immunofluoresence.
Descendent corticospinal tract axons were anterogradely traced after the dorsal column crush was performed by injected BDA (10% in PBS, Mw10K from Molecular Probes) into the motor cortex as previously described (see, e.g., Yip et al., 2006). Six injections were done in the right cortex (0.5 μL of BDA/injection point). Animals (n=6 per treatment) were perfused and the spinal cord was transferred to PBS (plus 0.1% sodium azide) and embedded in gelatin (10%, 300 bloom; Sigma, Poole, UK). Gelatin blocks were hardened in 4% paraformaldehyde, and 40 μm free-floating serial transverse sections were cut on a vibratome (Leica, Nussloch, Germany) and collected in 24-well plates containing PBS (plus 0.1% sodium azide).
BDA was detected using the tyramide amplification kit (Perkin-Elmer) coupled with extra-avidin-FITC (Amersham Pharmacia Biotech, UK, 1:500). All BDA-labelled fibres observed within a 1-mm square grid were counted at measured intervals from 5 mm above to 5 mm below the lesion site by an experimenter, blinded to treatment.
CST neurons were labelled by retrograde tracing injecting 2 μL of 5% Fluorogold (FG, Molecular Probes) 2 mm deep into the cervical spinal cord (C3-C4) at a rate of 0.5 μL/minute (n=3 rats per group). In sham animals, FG was injected 0.5 mm bilateral to the medial line of spinal cord (1 μL per side), and in lesioned animals FG (2 μL) was injected into the injury. After 14 days, the cortices were fixed for 2 hours in 4% paraformaldehyde (PFA), embedded in OCT compound and stored frozen. Sagittal sections (12 μm) were cut and 4 sequential slides containing 2 sections from lateral 3.4-3.9 mm were taken for analysis (see, e.g., Paxinos and Watson, 2002).
Immunohistochemistry was carried out using anti-rabbit phospho-Akt (Cell Signalling technology, dilution of 1:100). Secondary antibody used was anti-rabbit Cy3 conjugated (Jackson, used at 1:1000). Images were captured at 100× magnification using a Roperscientific digital camera.
The behavioural tests were carried out as previously described (see, e.g., Bradbury et al., 2002). Rats (n=6 per treatment group) were first trained for two weeks before surgery to perform grid walk and beam walk; they were then tested by an observer blinded to the experimental treatment once a week for five weeks after lesion.

The test system of the next assay is phospho-Akt. Put plainly: Western blot of cerebellar cultures for phospho-Akt. The class given is cell-based, rat. The conditions noted are these: cerebellar cultures treated with 1 μM. (In general: In western blotting, separated proteins are transferred to a membrane and probed.)
[7] abbreviates: i.c.v. 180 ng/kg/day for 14 days.

pEC50: −log10 of the molar value.

RARβ, sequence (P10826 183-417): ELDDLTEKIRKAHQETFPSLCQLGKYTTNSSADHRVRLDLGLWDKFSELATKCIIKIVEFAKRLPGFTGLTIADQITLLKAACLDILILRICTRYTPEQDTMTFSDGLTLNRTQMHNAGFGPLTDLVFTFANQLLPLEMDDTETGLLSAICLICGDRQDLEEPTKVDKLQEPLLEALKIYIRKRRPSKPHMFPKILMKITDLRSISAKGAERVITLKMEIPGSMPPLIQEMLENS

As a reminder, the pEC50 is −log10 of the EC50, conventionally taken in molar units. For `COc1ccc(-c2ccc3cc(C(=O)O)ccc3c2)cc1C1(C)CCCCC1` [CD2019, 6-(4-methoxy-3-(1-methylcyclohexyl)phenyl)-2-naphthalenecarboxylic acid], the “Axon/neurite outgrowth from cultured adult cortex of treated animals” value in the assay on cortex explants is “did grow”. For the same compound, in the assay on cerebellar neurons, the “Neurite outgrowth of cerebellar neurons grown in the presence of myelin” value was “causes the outgrowth of neurites”. The “Selectivity over RARγ” value at RARγ [1] was 1.9-fold. Moreover, the pEC50 on RARβ is 9.08. The “Selectivity RARβ over RARγ” value on RARγ [2] is recorded as 12 fold. The “Behavioural tests after 5 weeks (severed sensory roots)” value in assay [3] is listed as “performed as well as non-lesioned animals”. Moreover, the “Selectivity over RARα” value at RARα [4] is 11-fold. In addition, at RARα [5], the “Selectivity RARβ over RARα” value is 5 fold. Moreover, the “Phospho AKT in the injured CST neurons in vivo” value in assay [6] is “induced”. Moreover, the “BDA labelled CST axons crossing the lesion site” value in assay [6] (after 5 weeks) is on record as “many axons were observed crossing the injury site”. In assay [6] (applied to the lateral ventricle for 2 weeks), the “RARβ2 expression in CST neuronal cell bodies” value is “upregulation of RARβ 2”. For the same compound, the “Behavioural tests after 5 weeks (CST lesion)” value in assay [6] (grid walk and beam walk) was “performed as well as non-lesioned animals”. In addition, in [6] (setting [7]), the “Functional recovery of the forelimb in beam task (footslips), time of recovery” value is 2 weeks post lesion and the “Functional recovery of the forelimb in grid task (footslips), time of recovery” value turned out to be 4 weeks post lesion. Also, in the assay with phospho-Akt, the “Increase in neuronal phospho-Akt (not total Akt) compared to control cultures” value is given as 4 fold.

(Values after patent publication US10752616B2, “Bicycloheteroaryl-heteroaryl-benzoic acid compounds as retinoic acid receptor beta (RARβ) agonists” (King's College London, priority 2014, dated 2020).)
